Columns and labels:
hA2b/CHO = hA2b/CHO (Homo sapiens (Human), UniProt P29275); assay: cAMP inhibition assay in hA2b/CHO cells, 10 μM adenosine; format: cell-based; conditions: read-out: cAMP & FLIPR IC50 (nM) hA2b;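 note: cells exposed to compound 30 min at 37 °C, then stimulated with adenosine a further 30 min, cAMP read after 60 min at room temperature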
Experimental: (§1) hA2a/CHO, hA2b/CHO, hA3/CHO and mA2a/CHO (Genscript) were plated at 5×10^3 cells/well into 384-well polystyrene plates at the day of experiment. Compounds were pre-incubated with cells for 30 min at 37° C., 5% CO2. Then 10 μM adenosine was added to the cells and incubated for 30 min at 37° C., 5% CO2. Detection reagent (CISBIO) was added and the plates were incubated for 60 min at room temperature. The signal was captured by Envision.

mA2a/CHO = mA2a/CHO (Mus musculus (Mouse), UniProt Q60613); assay: cAMP inhibition assay in mA2a/CHO cells, 10 μM adenosine; format: cell-based; conditions: read-out: cAMP & FLIPR IC50 (nM) mA2a;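 note: compounds preincubated 30 min at 37 °C before the adenosine challenge, then 30 min further stimulation, readout after 60 min detection reagent incubation at room temperature in 384-well plates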
Experimental: as §1

hA2a/CHO = hA2a/CHO (Homo sapiens (Human), UniProt P29274); assay: cAMP inhibition assay in hA2a/CHO cells, 10 μM adenosine; format: cell-based; conditions: read-out: cAMP & FLIPR IC50 (nM) hA2a;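 note: compounds added to cells 30 min ahead of adenosine, then a further 30 min at 37 °C with adenosine before cAMP detection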
Experimental: as §1

[1] = biological target: hADORA1/CHO (hA1 expressing) cells (Homo sapiens (Human), UniProt P30542); assay: cell-based; conditions: FLIPR inhibition, 10 μM adenosine, read-out: cAMP & FLIPR IC50 (nM) hA1
Sequence of hADORA1/CHO (hA1 expressing) cells (P30542 whole entry): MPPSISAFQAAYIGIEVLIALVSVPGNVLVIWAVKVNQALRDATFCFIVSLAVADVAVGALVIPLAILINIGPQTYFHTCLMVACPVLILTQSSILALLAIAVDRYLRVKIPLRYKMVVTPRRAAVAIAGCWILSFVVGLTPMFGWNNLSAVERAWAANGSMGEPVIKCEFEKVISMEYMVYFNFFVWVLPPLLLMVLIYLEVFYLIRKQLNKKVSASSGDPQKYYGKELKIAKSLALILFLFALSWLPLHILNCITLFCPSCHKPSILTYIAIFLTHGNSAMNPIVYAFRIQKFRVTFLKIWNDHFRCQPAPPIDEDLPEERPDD

Sequence of hA2a/CHO (P29274 whole entry): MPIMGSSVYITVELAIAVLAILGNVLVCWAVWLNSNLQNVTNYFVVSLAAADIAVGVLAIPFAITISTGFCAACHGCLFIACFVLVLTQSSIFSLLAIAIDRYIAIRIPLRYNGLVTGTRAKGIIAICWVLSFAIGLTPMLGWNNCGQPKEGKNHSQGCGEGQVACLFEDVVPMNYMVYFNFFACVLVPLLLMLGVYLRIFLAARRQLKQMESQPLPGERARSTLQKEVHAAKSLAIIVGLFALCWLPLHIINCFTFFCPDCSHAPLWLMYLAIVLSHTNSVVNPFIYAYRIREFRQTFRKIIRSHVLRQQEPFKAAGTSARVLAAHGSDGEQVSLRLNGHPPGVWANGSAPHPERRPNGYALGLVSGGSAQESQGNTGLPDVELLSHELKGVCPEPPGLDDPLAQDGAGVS
Sequence of mA2a/CHO (Q60613 whole entry): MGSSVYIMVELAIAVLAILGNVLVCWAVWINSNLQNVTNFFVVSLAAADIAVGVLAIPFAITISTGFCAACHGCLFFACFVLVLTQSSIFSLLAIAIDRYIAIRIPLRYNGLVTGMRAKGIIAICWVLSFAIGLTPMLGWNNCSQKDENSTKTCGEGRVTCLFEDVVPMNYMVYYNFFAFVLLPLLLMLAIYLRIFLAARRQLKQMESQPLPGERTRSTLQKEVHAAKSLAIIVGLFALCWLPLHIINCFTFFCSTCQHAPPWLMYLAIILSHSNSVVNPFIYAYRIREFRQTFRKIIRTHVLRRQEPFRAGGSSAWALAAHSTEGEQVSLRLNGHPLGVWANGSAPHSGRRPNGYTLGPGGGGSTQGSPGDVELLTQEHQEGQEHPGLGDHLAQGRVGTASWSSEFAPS
Sequence of hA2b/CHO (P29275 whole entry): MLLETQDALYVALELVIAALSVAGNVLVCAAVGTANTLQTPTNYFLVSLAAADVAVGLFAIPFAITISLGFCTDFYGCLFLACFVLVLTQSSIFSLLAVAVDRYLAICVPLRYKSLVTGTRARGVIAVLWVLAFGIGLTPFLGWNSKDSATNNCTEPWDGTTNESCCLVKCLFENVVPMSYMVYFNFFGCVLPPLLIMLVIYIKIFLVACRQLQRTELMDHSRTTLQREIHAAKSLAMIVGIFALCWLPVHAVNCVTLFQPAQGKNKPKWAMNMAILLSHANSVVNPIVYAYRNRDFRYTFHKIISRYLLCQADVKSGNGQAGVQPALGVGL

Compound | IC50 (hA2b/CHO) | IC50 (mA2a/CHO) | IC50 (hA2a/CHO) | IC50 [1]
Cc1cnc2ccc(-c3nc(C(=O)NCC4CCCN4C)c(N)nc3-c3ncco3)cn12 (single isomer, unassigned) [Example 120] | 775 nM | 167 nM | – | –
Cc1cnc2ccc(-c3nc(C(=O)NCC4CCCN4C)c(N)nc3-c3ncco3)cn12 (single isomer, unassigned) [Example 121] | 747 nM | 204 nM | – | –
Cc1cnc2ccc(-c3nc(C(=O)NC(C)C4CCCO4)c(N)nc3-c3ncco3)cn12 (single isomer, unassigned; isomer 4) [Example 258, 3-amino-6-(3-methylimidazo[1,2-a]pyridin-6-yl)-5-(oxazol-2-yl)-N-(1-(tetrahydrofuran-2-yl)ethyl)pyrazine-2-carboxamide (isomer 4)] | – | – | 8.1 nM | 2510 nM
Cc1cnc2ccc(-c3nc(CNC(=O)C4CCCO4)c(N)nc3-c3ccc(F)cc3)cn12 (stereo in doubt) [Cmpd. 268, (2S)—N-[[3-amino-5-(4-fluorophenyl)-6-[3-methyl-imidazo-[1,2-a]pyridin-6-yl]pyrazin-2-yl]methyl]oxolane-2-carboxamide] | – | – | 0.2 nM | 6.7 nM
Cc1cnc2ccc(-c3nc(C(=O)NCc4cccc(N5CC(CN(C)C)C5)n4)c(N)nc3-c3ncco3)cn12 [Cmpd. 261, 3-amino-N-((6-(3-((dimethylamino)methyl)azetidin-1-yl)pyridin-2-yl)methyl)-6-(3-methylimidazo[1,2-a]pyridin-6-yl)-5-(oxazol-2-yl)pyrazine-2-carboxamide] | – | – | 0.4 nM | 158 nM
Cc1cc(-c2nc(C(=O)NCc3ccccc3OC(F)(F)F)c(N)nc2-c2ccc(F)cc2)cc(C)n1 [Example 65, 3-amino-6-(2,6-dimethylpyridin-4-yl)-5-(4-fluorophenyl)-N-(2-(trifluoromethoxy)benzyl)pyrazine-2-carboxamide] | – | 50 nM | 19 nM | –
CNCCOc1cccnc1CNC(=O)c1nc(-c2ccc3ncn(C)c3c2)c(-c2ccc(F)cc2)nc1N [Example 115, 3-amino-5-(4-fluorophenyl)-6-(1-methyl-1H-1,3-benzodiazol-6-yl)-N-([3-[2-(methylamino)ethoxy]pyridin-2-yl]methyl)pyrazine-2-carboxamide] | 596 nM | 12 nM | – | –
Cc1cnc2ccc(-c3nc(C(=O)NC[C@H]4CCCN4C)c(N)nc3-c3ccc(F)cc3)cn12 [Example 138, 3-amino-5-(4-fluorophenyl)-6-[3-methylimidazo[1,2-a]pyridin-6-yl]-N-[[(2R)-1-methylpyrrolidin-2-yl]methyl]pyrazine-2-carboxamide] | 959 nM | 70 nM | – | –
Cc1cnc2ccc(-c3nc(C(=O)NCc4cccc(N5C[C@H]6CC[C@@H](C5)N6C)n4)c(N)nc3-c3ncco3)cn12 [Example 173, 3-amino-N-((6-((1R,5S)-8-methyl-3,8-diazabicyclo[3.2.1]octan-3-yl)pyridin-2-yl)methyl)-6-(3-methylimidazo[1,2-a]pyridin-6-yl)-5-(oxazol-2-yl)pyrazine-2-carboxamide] | – | – | 5.1 nM | 6500 nM
Cc1cnc2ccc(-c3nc(C(=O)NCc4cccc(C5CCN(C)CC5)n4)c(N)nc3-c3ncco3)cn12 [Example 176, 3-amino-6-(3-methylimidazo[1,2-a]pyridin-6-yl)-N-((6-(1-methylpiperidin-4-yl)pyridin-2-yl)methyl)-5-(oxazol-2-yl) pyrazine-2-carboxamide] | – | – | 11 nM | 599 nM
Cc1cnc2ccc(-c3nc(C(=O)NCCn4ccccc4=O)c(N)nc3-c3ncco3)cn12 [Example 237, 3-amino-6-(3-methylimidazo[1,2-a]pyridin-6-yl)-5-(oxazol-2-yl)-N-(2-(2-oxopyridin-1(2H)-yl)ethyl)pyrazine-2-carboxamide] | – | – | 5.1 nM | 71 nM
Cc1cnc2ccc(-c3nc(C(=O)NCc4c(F)cccc4F)c(N)nc3N3CCOCC3)cn12 [Example 238, 3-amino-N-(2,6-difluorobenzyl)-6-(3-methylimidazo[1,2-a]pyridin-6-yl)-5-morpholinopyrazine-2-carboxamide] | – | – | 0.5 nM | 401 nM
Cc1cnc2ccc(-c3nc(C(=O)NCC4CCOCC4)c(N)nc3-c3ncco3)cn12 [Example 239, 3-amino-6-(3-methylimidazo[1,2-a]pyridin-6-yl)-5-(oxazol-2-yl)-N-((tetrahydro-2H-pyran-4-yl)methyl) pyrazine-2-carboxamide] | – | – | 4.8 nM | 2960 nM
Cc1cnc2ccc(-c3nc(C(=O)N[C@@H]4CCOC4)c(N)nc3-c3ncco3)cn12 [Example 255, (R)-3-amino-6-(3-methylimidazo [1,2-a]pyridin-6-yl)-5-(oxazol-2-yl)-N-(tetrahydrofuran-3-yl)pyrazine-2-carboxamide] | – | – | 20 nM | 6850 nM
Cc1cnc2ccc(-c3nc(CNC(=O)[C@H]4CCOC4)c(N)nc3-c3ccc(F)cc3)cn12 [Example 264, (S)-N-((3-amino-5-(4-fluorophenyl)-6-(3-methylimidazo[1,2-a]pyridin-6-yl)pyrazin-2-yl)methyl)tetrahydrofuran-3-carboxamide] | – | – | 25 nM | 84 nM
Cc1cnc2ccc(-c3nc(CNC(=O)[C@@H]4CCCO4)c(N)nc3-c3ccc(F)cc3)cn12 [Example 265, (S)-N-((3-amino-5-(4-fluorophenyl)-6-(3-methylimidazo[1,2-a]pyridin-6-yl)pyrazin-2-yl)methyl)tetrahydrofuran-2-carboxamide] | – | – | 7.3 nM | 26 nM
Cc1cnc2ccc(-c3nc(C(=O)N[C@H]4C[C@H](N(C)C)C4)c(N)nc3-c3ncco3)cn12 [Example 271-2, Trans-3-amino-N-(3-(dimethylamino)cyclobutyl)-6-(3-methylimidazo[1,2-a]pyridin-6-yl)-5-(oxazol-2-yl)pyrazine-2-carboxamide] | – | – | 23 nM | 865 nM
Cc1cnc2ccc(-c3nc(CNC(=O)[C@@H]4CCOC4)c(N)nc3-c3ccc(F)cc3)cn12 [Example 275, (R)-N-((3-amino-5-(4-fluorophenyl)-6-(3-methylimidazo[1,2-a]pyridin-6-yl)pyrazin-2-yl)methyl)tetrahydrofuran-3-carboxamide] | – | – | 6.1 nM | 39 nM
Cc1cnc2ccc(-c3nc(C(=O)NCc4cccc(N5CCOCC5)n4)c(N)nc3-c3ncco3)cn12 [Example 276, 3-amino-6-[3-methylimidazo[1,2-a]pyridin-6-yl]-N-[[6-(morpholin-4-yl)pyridin-2-yl]methyl]-5-(1,3-oxazol-2-yl)pyrazine-2-carboxamide] | – | – | 3.1 nM | 3070 nM
Cc1cnc2ccc(-c3nc(C(=O)N[C@H]4CCOC4)c(N)nc3-c3ncco3)cn12 [Example 277, (S)-3-amino-6-(3-methylimidazo[1,2-a]pyridin-6-yl)-5-(oxazol-2-yl)-N-(tetrahydrofuran-3-yl)pyrazine-2-carboxamide] | – | – | 12 nM | 6560 nM
Cc1cnc2ccc(-c3nc(CNC(=O)[C@H]4CCCN4C)c(N)nc3-c3cccc(F)c3)cn12 [Example 278, (R)—N-((3-amino-5-(3-fluorophenyl)-6-(3-methylimidazo[1,2-a]pyridin-6-yl)pyrazin-2-yl)methyl)-1-methylpyrrolidine-2-carboxamide] | – | – | 0.4 nM | 12 nM

From US10898481B2 (priority 2018, dated 2021)
